Results published in BindingDB's records for doi:10.1016/j.bmcl.2007.10.036 (Cardiff University, 2007).

Biological target: MAP kinase-activated protein kinase 2 (Homo sapiens, UniProt P49137)
Assay: Inhibition of MK2 in human TERT immortalised HCA2 cells assessed as inhibition of anisomycin-induced HSP27 phosphorylation at 2.5 uM by ELISA

Chain of MAP kinase-activated protein kinase 2 (P49137 whole entry): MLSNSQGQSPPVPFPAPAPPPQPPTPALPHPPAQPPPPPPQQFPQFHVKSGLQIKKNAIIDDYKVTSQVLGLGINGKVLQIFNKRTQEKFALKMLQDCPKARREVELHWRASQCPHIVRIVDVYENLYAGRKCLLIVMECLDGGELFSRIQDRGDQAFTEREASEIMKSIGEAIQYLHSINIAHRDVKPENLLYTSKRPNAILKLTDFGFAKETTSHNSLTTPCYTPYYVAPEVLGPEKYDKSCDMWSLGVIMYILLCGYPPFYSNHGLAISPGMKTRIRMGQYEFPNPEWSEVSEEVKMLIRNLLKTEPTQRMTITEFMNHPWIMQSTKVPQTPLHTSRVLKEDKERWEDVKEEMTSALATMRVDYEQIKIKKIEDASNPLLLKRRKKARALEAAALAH

O=C(CCCc1ccc(-c2ccccc2F)cc1)Nc1ccc(O)cc1
Ki: 330 nM
